Source: ChEMBL document CHEMBL3785026, “Pharmacokinetics of erythromycin in patients with severe cirrhosis. Respective influence of decreased serum binding and impaired liver metabolic capacity” (Br J Clin Pharmacol, 1987)

Tests used:
[1] = Total drug clearance in healthy human subjects (6 subjects) at 500 mg, iv by Sarcina lutea based bioassay; format: ADME, organism-based; conditions: in vivo
[2] = Volume of distribution at steady state in patient with severe cirrhosis (5 patients) at 500 mg, iv by Sarcina lutea based bioassay; format: ADME, organism-based; conditions: human, in vivo, read-out: Vdss
[3] = Volume of distribution at steady state in healthy human subjects (6 subjects) at 500 mg, iv by Sarcina lutea based bioassay; format: ADME, organism-based; conditions: in vivo, read-out: Vdss
Homo sapiens [4] = experiment: Unbound renal drug clearance in patient with severe cirrhosis (5 patients) at 500 mg, iv by Sarcina lutea based bioassay; format: ADME, organism-based, Kidney; conditions: in vivo
Homo sapiens [5] = experiment: Unbound renal drug clearance in healthy human subjects (6 subjects) at 500 mg, iv by Sarcina lutea based bioassay; format: ADME, organism-based, Kidney; conditions: in vivo
Homo sapiens [6] = experiment: Unbound non-renal drug clearance in healthy human subjects (6 subjects) at 500 mg, iv by Sarcina lutea based bioassay; format: ADME, organism-based; conditions: in vivo
[7] = Unbound fraction in serum of patient with severe cirrhosis (5 patients) at 500 mg, iv by Sarcina lutea based bioassay; format: ADME, organism-based; conditions: human
[8] = Terminal half life in patient with severe cirrhosis (5 patients) at 500 mg, iv by Sarcina lutea based bioassay; format: ADME, organism-based; conditions: human, in vivo, read-out: beta t1/2 (converted)
Homo sapiens [9] = experiment: Unbound non-renal drug clearance in patient with severe cirrhosis (5 patients) at 500 mg, iv by Sarcina lutea based bioassay; format: ADME, organism-based; conditions: in vivo
Homo sapiens [10] = experiment: Unbound drug clearance in patient with severe cirrhosis (5 patients) at 500 mg, iv by Sarcina lutea based bioassay; format: ADME, organism-based; conditions: in vivo
[11] = Unbound fraction in serum of healthy human subjects (6 subjects) at 500 mg, iv by Sarcina lutea based bioassay; format: ADME, organism-based
[12] = Total drug clearance in patient with severe cirrhosis (5 patients) at 500 mg, iv by Sarcina lutea based bioassay; format: ADME, organism-based; conditions: human, in vivo
[13] = Terminal half life in healthy human subjects (6 subjects) at 500 mg, iv by Sarcina lutea based bioassay; format: ADME, organism-based; conditions: in vivo, read-out: beta t1/2 (converted)
Homo sapiens [14] = experiment: Unbound drug clearance in healthy human subjects (6 subjects) at 500 mg, iv by Sarcina lutea based bioassay; format: ADME, organism-based; conditions: in vivo

clearance [1]: 570 mL/min
Vd [2]: 85.5 L
Vd [3]: 57.6 L
CL free (Homo sapiens [4]): 11.2 L/h
CL free (Homo sapiens [5]): 14.5 L/h
CL free (Homo sapiens [6]): 98.6 L/h
fraction unbound [7]: 0.583
half-life [8]: 2.24 h
CL free (Homo sapiens [9]): 31.6 L/h
CL free (Homo sapiens [10]): 42.2 L/h
fraction unbound [11]: 0.305
clearance [12]: 403 mL/min
half-life [13]: 1.36 h
CL free (Homo sapiens [14]): 113.2 L/h
SMILES: CC[C@H]1OC(=O)[C@H](C)[C@@H](O[C@H]2C[C@@](C)(OC)[C@@H](O)[C@H](C)O2)[C@H](C)[C@@H](O[C@@H]2O[C@H](C)C[C@H](N(C)C)[C@H]2O)[C@](C)(O)C[C@@H](C)C(=O)[C@H](C)[C@@H](O)[C@]1(C)O.O=C(O)[C@H](O)[C@@H](O)[C@H](O[C@@H]1O[C@H](CO)[C@@H](O)[C@@H](O)[C@H]1O)[C@H](O)CO
